These results are taken from patent US7115754B2, “Pyrrolidine derivatives as oxytocin antagonists” (Applied Research Systems ARS Holding N.V., priority 2002, dated 2006).

By Ki is commonly meant a measure of affinity in units of concentration, obtained from inhibition or displacement. In general, pIC50 refers to the IC50 on a negative log10 scale, so that one unit is a factor of ten.

Structures are written as SMILES. pIC50: −log10 of the molar value.

Experiment [1] concerns the target T1, human Oxytocin (hOT) receptor (Homo sapiens, UniProt P30559).
T1 construct: expressed in transfected cells; host or cells: HEK293EBNA (membranes)
T1 sequence (P30559 1-389): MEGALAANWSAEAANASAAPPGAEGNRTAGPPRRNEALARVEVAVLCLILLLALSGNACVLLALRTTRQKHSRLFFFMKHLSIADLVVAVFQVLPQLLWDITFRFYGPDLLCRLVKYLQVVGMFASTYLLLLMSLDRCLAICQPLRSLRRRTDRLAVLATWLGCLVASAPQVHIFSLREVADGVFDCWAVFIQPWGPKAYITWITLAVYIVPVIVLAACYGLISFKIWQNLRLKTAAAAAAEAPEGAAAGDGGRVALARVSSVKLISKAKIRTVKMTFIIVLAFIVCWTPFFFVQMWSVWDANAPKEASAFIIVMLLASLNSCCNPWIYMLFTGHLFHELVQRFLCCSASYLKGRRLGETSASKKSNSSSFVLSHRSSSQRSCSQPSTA
Put plainly: In vitro competition binding assay on hOT receptor with scintillation proximity assay. Particulars: inhibition of [125I]-OVTA binding, membranes from HEK293EBNA cells expressing hOT receptor; read-out: Binding Affinity hOT-R (Ki [nM]). The protocol: The compounds according to Formula I may be subjected to the following assays: • a) In vitro Competition Binding Assay on hOT Receptor with Scintillation Proximity Assay (11).
This assay allows to determine the affinity of the test compounds for the human Oxytocin (hOT) receptor. Membranes from HEK293EBNA (cells expressing the hOT receptor) were suspended in buffer containing 50 mM Tris-HCl, pH 7.4, 5 mM MgCl2 and 0.1% BSA (w/v). The membranes (2–4 μg) were mixed with 0.1 mg SPA bead coated with wheat-germ aglutinin (WGA-PVT-Polyethylene Imine beads from Amersham) and 0.2 nM of the radiolabelled [^125I]-OVTA (OVTA being Ornithin Vasoactive, an analogue of OT for competitive binding experiments). Non-specific binding was determined in the presence of 1 μM Oxytocin. The total assay volume was 100 μl. The plates (Corning® NBS plate) were incubated at room temperature for 30 min and counted on a Mibrobeta® plate scintillation counter. Competitive binding was performed in presence of compounds of formula (I) at the following concentrations: 30 μM, 10 μM, 1 μM, 300 nM, 100 nM, 10 nM, 1 nM, 100 pM, 10 pM. The competitive binding data were analysed using the iterative, nonlinear, curve-fitting program, “Prism” (GraphPad Software, Inc).
The ability of pyrrolidine derivatives of formula (I) to inhibit the binding of ^125-OVTA to the OT-receptor was assessed using the above described in vitro biological assay. Representative values for some example compounds are given in Table I where the binding affinity of test compounds from the above examples is expressed by the inhibition constant (Ki; nM). From these values, it can be derived that said test compounds according to formula I do show a significant binding to the oxytocin receptor.

For experiment [2], the target named is T2, hOT receptor (HEK293EBNA cells expressing the hOT receptor) (Homo sapiens, UniProt P30559).
T2 construct: expressed in transfected cells; host or cells: HEK293EBNA
T2 sequence (P30559 1-389): T1 sequence (P30559 1-389)
The experiment in a line: Functional assay No. 1: inhibition of oxytocin mediated Ca2+-mobilization by FLIPR. Particulars: OT 40 nM, fluo-4, read-out: Inhibition of Ca2+ mobilisation, hOT-R IC50. Format: cell-based. Background: Calcium assays in cells follow changes in intracellular calcium, usually with a dye or a luminescent sensor.
Experimental: This assay allows the measurement of the inhibition of OT/OT-R mediated calcium mobilization by test compounds of formula (I).
Preparing the plates: FLIPR-plates were pre-coated with PLL (Poly-L-Lysine) 10 μg/ml+0.1% gelatine to attach HEK293EBNA cells (Human Embryonic Kidney cells expressing the hOT receptor) and incubated for 30 min up to 2 days at 37° C. The cells were plated out into 96-well-plates (60000 cells/well).
Labelling with fluo-4: 50 μg of fluo-4 (Ca2+ sensitive fluorescent dye) were dissolved in 20 μl pluronic acid (20% in DMSO). The dissolved fluo-4 was then diluted in 10 ml DMEM (Dubecco's Minimal Essential Medium)-F12 culture medium. The plates were washed one time with DMEM-F12 medium. […] Fluo-4 is taken up by the cytoplasm of the cells. […]
The relative fluorescence of Fluo-4 (λex=488 nm, λem=590 nm) is then measured by the FLIPR in presence or absence of compounds of formula (I). The fluorescence of the marker being sensitive to the amount of Ca^2+, the Ca^2+ movements can be detected. Then, it can be determined the ability of compounds of formula (I) to antagonize the oxytocin-induced intracellular Ca^2+-mobilization mediated by the oxytocin receptor.
The activities of the pyrrolidine derivatives according to formula I were assessed using the above described in vitro biological assay. […]

The subject of experiment [3] is oxytocin-induced uterine contractions in the rat. Put plainly: In vivo model for inhibition of uterine contractions. Particulars: 40 min after test compound administration. The protocol: The ability of compounds of formula (I) to effectively antagonize oxytocin-induced IP3-synthesis mediated by the oxytocin receptor, can be assessed using the above described in vitro biological assay. • d) In vivo Model for Inhibition of Uterine Contractions
The assay evaluates the biological effect of tested compounds in an in vivo model of preterm labor, premature birth.
Non-pregnant Charles River CD (SD) BR female rats (9–10 weeks old, 200–250 g) were treated at 18 and 24 hours before the experiment with 250 μg/kg, i.p. diethylstilbestrol (DES). For the assay, the animal was anaesthetised with urethane (1.75 g/kg, i.p.) and placed on a homeothermic operating table. The trachea was isolated and cannulated with a suitable polyethylene (PE) tubing. […]
The contractile response of the uterus to oxytocin was quantified by measuring the intra-uterine pressure and the number of contractions. The effect of the reference and test compounds was evaluated by comparing pre- and post-treatment pressure values. In addition, contractions of the uterine were measured at 5, 40, 75, 110, 145 and 180 minutes after test compound administration.
The activities of the pyrrolidine derivatives claimed in the Formula I can be assessed using the above described in vivo biological assay. […]

Consider `CON=C1C[C@@H](CCO)N(C(=O)c2ccc(-c3ccccc3)cc2)C1` [Compound 16, (3EZ,5S)-1-(1,1′-biphenyl-4-ylcarbonyl)-5-(2-hydroxyethyl)pyrrolidin-3-one O-methyloxime], for which the inhibition constant (Ki) in experiment [1] worked out at 120 nM.
For the compound `COC[C@@H]1CC(=NOC)CN1C(=O)c1ccc(-c2ccccc2)cc1` [Compound 8, (3EZ,5S)-1-(1,1′-biphenyl-4-ylcarbonyl)-5-(methoxymethyl)pyrrolidin-3-one O-methyloxime], the Ki in experiment [1] turned out to be 55 nM.
`CON=C1C[C@@H](CN2C(=O)c3ccccc3C2=O)N(C(=O)c2ccc(-c3ccccc3)cc2)C1` [Compound 12, 2-{[(2S,4EZ)-1-(1,1′-biphenyl-4-ylcarbonyl)-4-(methoxyimino)pyrrolidin-2-yl]methyl}-1H-isoindole-1,3(2H)-dione]: the inhibitory constant (Ki) in experiment [1] came to 5.1 nM.
Regarding `CO/N=C1/C[C@@H](CO)N(C(=O)c2ccc(-c3ccccc3)cc2)C1` [Compound 4, (3Z,5S)-1-(1,1′-biphenyl-4-ylcarbonyl)-5-(hydroxymethyl) pyrrolidin-3-one O-methyloxime], the Ki in experiment [1] turned out to be 94.9 nM. For the same compound, in experiment [2], the pIC50 was 8.00.
As to `CON=C1C[C@@H](CO)N(C(=O)c2ccc(-c3ccccc3)cc2)C1` [Compound 2, (3EZ,5S)-1-(1,1′-biphenyl-4-ylcarbonyl)-5 (hydroxymethyl) pyrrolidin-3-one O-methyloxime], in experiment [1], the Ki stood at 139 nM. Besides, the “% Reduction of Uterine Contraction” value in experiment [3] (10 mg/kg per i.v.) is listed as 39.8 ± 10.0%; in experiment [3] (30 mg/kg per os), 50.9 ± 8.6%. For the same compound, the pIC50 in experiment [2] is 7.05.
As to `CON=C1C[C@@H](COCC(=O)NCCN2CCCC2)N(C(=O)c2ccc(-c3ccccc3)cc2)C1` [Compound 7, 2-{[(2S,4EZ)-1-(1,1′-biphenyl-4-ylcarbonyl)-4-(methoxyimino)pyrrolidin-2-yl]methoxy}-N-(2-pyrrolidin-1-ylethyl)acetamide], the Ki in experiment [1] was found to be 140 nM.
